Assays:
Type in all cases: in vivo
[1] = test system: canarygrass (Phalaris minor); assay: Test C preemergence, canarygrass; conditions: 125 g ai/ha, 21 days, scale 0 to 100
From the text: (§1) Seeds of plant species selected from annual bluegrass (Poa annua), blackgrass (Alopecurus myosuroides), canarygrass (Phalaris minor), gallium, (catchweed bedstraw, Galium aparine), chickweed (Stellaria media), downy bromegrass (Bromus tectorum), field poppy (Papaver rhoeas), field violet (Viola arvensis), green foxtail (Setaria viridis), deadnettle (henbit deadnettle, Lamium amplexicaule), Italian ryegrass (Lolium multiflorum), kochia (Kochia scoparia), lambsquarters (Chenopodium album), oilseed rape (Brassica napus), pigweed (Amaranthus retroflexus), Russian thistle (Salsola kali), spring barley (Hordeum vulgare), spring wheat (Triticum aestivum), wild buckwheat (Polygonum convolvulus), wild mustard (Sinapis arvensis), wild oat (Avena fatua), wild radish (Raphanus raphanistrum), windgrass (Apera spica-venti), winter barley (Hordeum vulgare), and winter wheat (Triticum aestivum) were planted and treated preemergence with test chemicals formulated in a non-phytotoxic solvent mixture which included a surfactant.
(§2) Treated plants and controls were maintained in a controlled growth environment for 21 days after which time all species were compared to controls and visually evaluated. Plant response ratings, summarized in Table C, are based on a scale of 0 to 100 where 0 is no effect and 100 is complete control. A dash (-) response means no test result.

[2] = test system: oilseed rape (Brassica napus); assay: Test C preemergence, oilseed rape; conditions: 21 days, scale 0 to 100
From the text: as §1, §2

[3] = test system: spring barley (Hordeum vulgare); assay: Test C preemergence, spring barley; conditions: 21 days, scale 0 to 100
From the text: as §1, §2

[4] = test system: annual bluegrass (Poa annua); assay: Test C preemergence, annual bluegrass; conditions: 21 days, scale 0 to 100
From the text: as §1, §2

[5] = test system: wild radish (Raphanus raphanistrum); assay: Test C preemergence, wild radish; conditions: 21 days, scale 0 to 100
From the text: as §1, §2

[6] = test system: wild buckwheat (Polygonum convolvulus); assay: Test C preemergence, wild buckwheat; conditions: 21 days, scale 0 to 100
From the text: as §1, §2

[7] = test system: deadnettle (henbit deadnettle, Lamium amplexicaule); assay: Test C preemergence, deadnettle; conditions: 21 days, scale 0 to 100
From the text: as §1, §2

[8] = test system: spring wheat (Triticum aestivum); assay: Test C preemergence, spring wheat; conditions: 21 days, scale 0 to 100
From the text: as §1, §2

[9] = test system: green foxtail (Setaria viridis); assay: Test C preemergence, green foxtail; conditions: 125 g ai/ha, 21 days, scale 0 to 100
From the text: as §1, §2

[10] = test system: chickweed (Stellaria media); assay: Test C preemergence, chickweed; conditions: 21 days, scale 0 to 100
From the text: as §1, §2

wild oat (Avena fatua) = assay: Test C preemergence, wild oat; conditions: 21 days, scale 0 to 100
From the text: as §1, §2

kochia (Kochia scoparia) = assay: Test C preemergence, kochia; conditions: 21 days, scale 0 to 100
From the text: as §1, §2

[11] = test system: field poppy (Papaver rhoeas); assay: Test C preemergence, field poppy; conditions: 21 days, scale 0 to 100
From the text: as §1, §2

[12] = test system: winter barley (Hordeum vulgare); assay: Test C preemergence, winter barley; conditions: 21 days, scale 0 to 100
From the text: as §1, §2

[13] = test system: field violet (Viola arvensis); assay: Test C preemergence, field violet; conditions: 21 days, scale 0 to 100
From the text: as §1, §2

[14] = test system: gallium, (catchweed bedstraw, Galium aparine); assay: Test C preemergence, galium; conditions: 21 days, scale 0 to 100
From the text: as §1, §2

[15] = test system: windgrass (Apera spica-venti); assay: Test C preemergence, windgrass; conditions: 125 g ai/ha, 21 days, scale 0 to 100
From the text: as §1, §2

[16] = test system: Russian thistle (Salsola kali); assay: Test C preemergence, Russian thistle; conditions: 21 days, scale 0 to 100
From the text: as §1, §2

[17] = test system: lambsquarters (Chenopodium album); assay: Test C preemergence, lambsquarters; conditions: 21 days, scale 0 to 100
From the text: as §1, §2

[18] = test system: downy bromegrass (Bromus tectorum); assay: Test C preemergence, downy bromegrass; conditions: 21 days, scale 0 to 100
From the text: as §1, §2

CC1(C)CC(S(=O)(=O)Cc2c(C(F)(F)F)nc3n(c2=O)CCS3)=NO1 [Compound 6]
Plant response rating, Canarygrass [1]: 35 | Plant response rating, Oilseed Rape ([2]; 31 g ai/ha): 0 | Plant response rating, Oilseed Rape ([2]; 62 g ai/ha): 0 | Plant response rating, Oilseed Rape ([2]; 125 g ai/ha): 0 | Plant response rating, Oilseed Rape ([2]; 250 g ai/ha): 0 | Plant response rating, Barley, Spring ([3]; 31 g ai/ha): 20 | Plant response rating, Barley, Spring ([3]; 62 g ai/ha): 20 | Plant response rating, Barley, Spring ([3]; 125 g ai/ha): 20 | Plant response rating, Barley, Spring ([3]; 250 g ai/ha): 20 | Plant response rating, Bluegrass ([4]; 31 g ai/ha): 20 | Plant response rating, Bluegrass ([4]; 62 g ai/ha): 20 | Plant response rating, Bluegrass ([4]; 125 g ai/ha): 20 | Plant response rating, Bluegrass ([4]; 250 g ai/ha): 90 | Plant response rating, Radish, Wild ([5]; 31 g ai/ha): 0 | Plant response rating, Radish, Wild ([5]; 62 g ai/ha): 0 | Plant response rating, Radish, Wild ([5]; 125 g ai/ha): 0 | Plant response rating, Radish, Wild ([5]; 250 g ai/ha): 0 | Plant response rating, Buckwheat, Wild ([6]; 31 g ai/ha): 0 | Plant response rating, Buckwheat, Wild ([6]; 62 g ai/ha): 0 | Plant response rating, Buckwheat, Wild ([6]; 125 g ai/ha): 0 | Plant response rating, Buckwheat, Wild ([6]; 250 g ai/ha): 0 | Plant response rating, Deadnettle ([7]; 31 g ai/ha): 0 | Plant response rating, Deadnettle ([7]; 62 g ai/ha): 0 | Plant response rating, Deadnettle ([7]; 125 g ai/ha): 0 | Plant response rating, Deadnettle ([7]; 250 g ai/ha): 0 | Plant response rating, Wheat, Spring ([8]; 31 g ai/ha): 0 | Plant response rating, Wheat, Spring ([8]; 62 g ai/ha): 0 | Plant response rating, Wheat, Spring ([8]; 125 g ai/ha): 0 | Plant response rating, Wheat, Spring ([8]; 250 g ai/ha): 15 | Plant response rating, Foxtail, Green [9]: 20 | Plant response rating, Chickweed ([10]; 31 g ai/ha): 0 | Plant response rating, Chickweed ([10]; 62 g ai/ha): 0 | Plant response rating, Chickweed ([10]; 125 g ai/ha): 0 | Plant response rating, Chickweed ([10]; 250 g ai/ha): 50 | Plant response rating, Oat, Wild (wild oat (Avena fatua); 31 g ai/ha): 20 | Plant response rating, Oat, Wild (wild oat (Avena fatua); 62 g ai/ha): 25 | Plant response rating, Oat, Wild (wild oat (Avena fatua); 125 g ai/ha): 25 | Plant response rating, Oat, Wild (wild oat (Avena fatua); 250 g ai/ha): 30 | Plant response rating, Kochia (kochia (Kochia scoparia); 31 g ai/ha): 0 | Plant response rating, Kochia (kochia (Kochia scoparia); 62 g ai/ha): 0 | Plant response rating, Kochia (kochia (Kochia scoparia); 125 g ai/ha): 0 | Plant response rating, Kochia (kochia (Kochia scoparia); 250 g ai/ha): 0 | Plant response rating, Field Poppy ([11]; 31 g ai/ha): 40 | Plant response rating, Field Poppy ([11]; 62 g ai/ha): 50 | Plant response rating, Field Poppy ([11]; 125 g ai/ha): 90 | Plant response rating, Field Poppy ([11]; 250 g ai/ha): 100 | Plant response rating, Barley, Winter ([12]; 31 g ai/ha): 0 | Plant response rating, Barley, Winter ([12]; 62 g ai/ha): 0 | Plant response rating, Barley, Winter ([12]; 125 g ai/ha): 15 | Plant response rating, Barley, Winter ([12]; 250 g ai/ha): 20 | Plant response rating, Field Violet ([13]; 31 g ai/ha): 0 | Plant response rating, Field Violet ([13]; 62 g ai/ha): 0 | Plant response rating, Field Violet ([13]; 125 g ai/ha): 0 | Plant response rating, Field Violet ([13]; 250 g ai/ha): 0 | Plant response rating, Galium ([14]; 31 g ai/ha): 0 | Plant response rating, Galium ([14]; 62 g ai/ha): 0 | Plant response rating, Galium ([14]; 125 g ai/ha): 0 | Plant response rating, Galium ([14]; 250 g ai/ha): 0 | Plant response rating, Windgrass [15]: 20 | Plant response rating, Russian Thistle ([16]; 31 g ai/ha): 0 | Plant response rating, Russian Thistle ([16]; 62 g ai/ha): 0 | Plant response rating, Russian Thistle ([16]; 125 g ai/ha): 0 | Plant response rating, Lambsquarters ([17]; 31 g ai/ha): 0 | Plant response rating, Lambsquarters ([17]; 62 g ai/ha): 0 | Plant response rating, Lambsquarters ([17]; 125 g ai/ha): 0 | Plant response rating, Lambsquarters ([17]; 250 g ai/ha): 35 | Plant response rating, Bromegrass, Downy ([18]; 31 g ai/ha): 0 | Plant response rating, Bromegrass, Downy ([18]; 62 g ai/ha): 0 | Plant response rating, Bromegrass, Downy ([18]; 125 g ai/ha): 25 | Plant response rating, Bromegrass, Downy ([18]; 250 g ai/ha): 35

— patent US20100099561A1, “HETEROBICYCLIC ALKYLTHIO-BRIDGED ISOXAZOLINES” (E.I. DU PONT DE NEMOURS AND COMPANY, priority 2008, published 2010)
